Reference: patent US20090325909A1, “Suppression of HIV replication and prevention and treatment of HIV” (The Johns Hopkins University, priority 2003, published 2009)
Counter-ions that a name gives are not always drawn.

Experiments:
[1] = tested on: SIV/DeltaB670 and SIV/17E-Fr; test: Incidence and severity of encephalitis in the accelerated SIV/macaque model; format: in vivo, pigtailed macaques (Macaca nemestrina); settings: 4 mg/kg/day oral from 21 days p.i., euthanized at 84 days p.i., n = 5
Description: Primate model for asymptomatic acute SIV infection. To identify events during acute and asymptomatic infection that lead to CNS disease a SIV/macaque model was developed in which the vast majority of infected animals develop CNS disease. […] These findings indicated the presence of mechanisms in the CNS that quell SIV replication and macrophage activation early after infection.
To identify events during acute and asymptomatic infection that lead to CNS disease in a SIV/macaque, a model was needed in which the vast majority of infected animals develop CNS disease. […] Virus replication and macrophage activation markers in the CNS declined in all macaques by 21 days p.i., despite high levee virus replication in the peripheral blood at this time. These findings indicated the presence of mechanisms in the CNS that quell SIV replication and macrophage activation early after infection.
Animals. Twenty-eight pigtailed macaques (Macaca nemestrina) were intravenously inoculated with a virus swarm, SIV/DeltaB670, and a cloned, neurovirulent virus, SIV/17Efr. Samples of brain tissue (basal ganglia and adjacent subcortical white matter) from macaques euthanized at 10 (n=6), 21′ (n=5), 56 (n=5) and 84 (n−=12) days p.i., and from uninfected control macaques (n=3 to 8) were fixed and embedded and […] sections were cut for immunohistochemical analysis of MAPKs. Of the macaques euthanized at 84 days p.i., one had no morphologic signs of encephalitis, two had mild encephalitis, five had moderate encephalitis and four had severe encephalitis based on morphologic criteria.
All macaques were euthanized at 84 days p.i. and their brains examined for pathological lesions typical of SIV encephalitis.

HIVIIIB = test: HIV replication in primary human PBL, p24 ELISA; format: cell-based
Description: (§1) The HIV strains used in these experiments were HIVBaL (for macrophage infection) and HIVIIIB (for lymphocyte infection); the SIV strains were SIV/17E-Fr and SIV/DeltaB670 (both grow well in primary macrophages and lymphocytes.).
(§2) Virus replication was quantified over time by p24 (HIV) or p27 (SIV) ELISA.

[2] = tested on: SIV/17E-Fr and SIV/DeltaB670; test: SIV replication in primary macaque macrophages, p27; format: cell-based; settings: for reduction in SIV p27 levels: SIV/DeltaB670-infected macrophages, 10 days p.i.
Description: as §1, §2
Inhibition of SIV Virus in vitro. […]

[3] = tested on: SIV/17E-Fr and SIV/DeltaB670; test: SIV replication in primary macaque PBL, p27 ELISA; format: cell-based; settings: pretreated with minocycline 24 hr prior to infection
Description: as §1, §2

HIVBaL = test: HIV replication in primary human macrophages, p24 ELISA; format: cell-based
Description: as §1, §2

[4] = pretreated with minocycline 24 hr prior to infection

Question: With CN(C)c1ccc(O)c2c1C[C@H]1C[C@H]3[C@H](N(C)C)C(O)=C(C(N)=O)C(=O)[C@@]3(O)C(O)=C1C2=O [Minocycline, [4S-(4a,4aa,5aa,12aa)-4,7-bis(dimethylamino)-1,4,4a,5,5a,6,11,12a-octahydro-3,10,12,12a-tetrahydroxy-1,11-dioxo-2-naphthacenecarboxamide]monohydrochloride] as the molecule, how does the “Severity of Encephalitis: Mild (number of macaques)” value [1] read?
Answer: The value was 2.

Question: What about the “Severity of Encephalitis: Moderate (number of macaques)” value [1] of the same molecule?
Answer: The value was 0.

Question: What about the “Severity of Encephalitis: None (number of macaques)” value [1] of the same molecule?
Answer: The value was 3.

Question: What about the “Severity of Encephalitis: Severe (number of macaques)” value [1] of the same molecule?
Answer: Its value is 0.

Question: What about the “reduction in HIV p24 levels” value (HIVIIIB; HIV-infected lymphocytes, 40 μg/ml 24 hours prior to infection, 9 days p.i.) of the same molecule?
Answer: The value was 92%.

Question: What about the “inhibition of HIV replication in PBL” value (HIVIIIB; [4]) of the same molecule?
Answer: The value was 92%.

Question: What about the “inhibition of virus replication” value ([2]; SIV/17E-Fr-infected macrophages) of the same molecule?
Answer: The value was 85%.

Question: What about the “reduction in SIV p27 levels” value ([2]; 10 μg/ml at the time of infection) of the same molecule?
Answer: The value was 95%.

Question: And the “reduction in SIV p27 levels” value ([2]; 40 μg/ml prior to infection)?
Answer: The value was 98%.

Question: And the “inhibition of SIV replication in macrophages” value [2, 4]?
Answer: Its value is 85%.

Question: And the “inhibition of SIV replication in PBL” value [3]?
Answer: Its value is 99%.

Question: And the “reduction in HIV p24 levels” value (HIVBaL; HIV-infected macrophages, 40 μg/ml 24 hours prior to infection, 9 days p.i.)?
Answer: Its value is 99%.

Question: And the “inhibition of HIV replication in macrophages” value (HIVBaL; [4])?
Answer: The value was 99%.
